In experiment [1] the test system is rats. Description: Spinal Nerve (L5/L6) Ligation model for neuropathic pain (tactile allodynia, von Frey) in rats. Format: in vivo. The note with it: rat.
Experiment [2] deals with mice. Description: Hotplate assay for acute pain in mice. It is filed as in vivo, mouse. The protocol: The action of P^1-5′-[2′-(O)—,3′-(O)-(benzyl)methylenedioxy]adenosine-P^4-5″-adenosine tetraphosphate, (AP4AmA; AP4A-2′, 3′-mono-acetal with phenylacetaldehyde) on mice in the hotplate model illustrates the analgesic affect of compounds of Formula I. The temperature of the hot plate was set at 55 degrees Celsius. Animals were administered subcutaneously AP4AmA or saline into the dorsal aspect of both hind paws in a volume of 20 microliters. This administration occurred 5 minutes prior to placement on the hotplate. Morphine was administered subcutaneously into the back nape of the mouse's neck in a volume of 10 mL/kg.
The time to hindpaw lick was used as the efficacy endpoint.

Experiment [3] deals with mice. Nature of the experiment: Phenylbenzoquinone-induced abdominal constriction assay for visceral pain in mice. It is filed as in vivo, mouse. The protocol:
(§1) These examples illustrate the effects of AP4AmA in two similar models of abdominal constriction; acetic acid-induced and phenylbenzoquinone-induced constrictions in mice. The method employed in FIGS. 2A and […] was a modification of the abdominal constriction test described by Collier et. al (Collier, H, O. et. al, Br. J. Pharmacol. Chemother. 32:295-310 (1968)).
Briefly, in FIG. 2B, each animal received an i.p. injection of 0.02% phenylbenzoquinone in a volume of 10 mL/kg. The mouse was placed in an observation chamber shortly after the acetic acid injection and allowed to explore. Testing started five minutes after the acetic acid injection and consisted of 5 minutes of observation during which the number of abdominal constrictions was counted. Abdominal constriction was defined as a lengthwise stretching of the torso with concave arching of the back. AP4AmA and vehicle were administered i.p., in a volume of 10 mL/kg, 3 minutes prior to the administration of acetic acid while morphine was administered i.p., in a volume of 10 mL/kg, 30 minutes prior to the administration of acetic acid.

Experiment [4] has as its system mice. Nature of the experiment: Acetic acid-induced abdominal constriction assay for visceral pain in mice. Format: in vivo, mouse. How it is done:
as §1
Briefly, in FIG. 2A, each animal, received an intraperitoneal (i.p.) injection of 0.9% acetic acid in a volume of 10 mL/kg. The mouse was placed in an observation chamber shortly after the acetic acid injection and allowed to explore. Testing started five minutes after the acetic acid injection and consisted of 10 minutes of observation during which the number of abdominal constrictions was counted. Abdominal constriction was defined as a lengthwise stretching of the torso with concave arching of the back. AP4AmA and vehicle were administered i.p., in a volume of 10 mL/kg, 3 minutes prior to the administration of acetic acid while Morphine was administered i.p., in a volume of 10 mL/kg, 25 minutes prior to the administration of acetic acid.

Experiment [5] deals with mice. Description: Formalin assay for persistent inflammatory pain (phase II) in mice. Format: in vivo, mouse. Conditions: 5% formalin s.c. right hindpaw; compound s.c. same paw 10 minutes after formalin; 10-30 minutes post formalin; across doses. The protocol: This example illustrates the effect of AP4AmA in mice in phase II of the formalin assay for persistent inflammatory pain. In brief, mice were injected 20 microliters of a 5% full strength formalin solution subcutaneously (s.c.) into the dorsal aspect of the right hindpaw. The mice were returned to the observation cage. The mice were injected 10 microliters s.c. into the same dorsal aspect of the right hindpaw with either vehicle or AP4AmA in varying concentrations 10 minutes after the formalin injection. […]

For experiment [6], the system named is rats. The note with it: Jarvis and Kowaluk, 2001; cited from earlier work.
[7] abbreviates: mouse hotplate, highest dose of AP4AmA.

With `Nc1ncnc2c1ncn2[C@@H]1O[C@H](COP(=O)(O)OP(=O)(O)OP(=O)(O)OP(=O)(O)OC[C@H]2O[C@@H](n3cnc4c(N)ncnc43)[C@@H]3OC(Cc4ccccc4)O[C@@H]32)[C@@H](O)[C@H]1O` (stereo partly drawn) [AP4AmA, P^1-5′-[2′-(O)—,3′-(O)-(benzyl)methylenedioxy]adenosine-P^4-5″-adenosine tetraphosphate], in the experiment with rats [1] (von Frey filaments), the “gram force required to induce withdrawal of the allodynic hindpaw, compared with morphine” value is listed as “not statistically different from morphine” and the “gram force required to induce withdrawal of the allodynic hindpaw, compared with vehicle control” value is listed as “significantly different from vehicle control”. In addition, the reversal of allodynia entry in the experiment on rats [1] (0.03 mg/mL, 50 microliters subplantar, 60 minutes prior to testing, versus morphine i.p. 16 mg/kg) was “can reverse the allodynia in the rat to an equivalent level as morphine”. The “time to hindpaw lick, maximal percent effect (MPE %)” value in the experiment with mice [2] (mouse hotplate 55 degrees Celsius, s.c. into both hind paws 5 minutes before, across doses) was “dose dependent pharmacological effect”. Besides, in the experiment on mice [2] (setting [7]), the “time to hindpaw lick, maximal percent effect, compared with morphine” value is “statistically equivalent to morphine” and the “time to hindpaw lick, maximal percent effect, compared with vehicle control” value was “statistically significant from vehicle control”. In the experiment on mice [3] (0.02% phenylbenzoquinone i.p., compound i.p. 3 minutes prior, across doses), the “number of abdominal constrictions” value is “dose dependent pharmacological effect”. In addition, the “number of abdominal constrictions, compared with morphine” value with mice [3] (phenylbenzoquinone model, 30 mg/kg AP4AmA i.p.) was “not statistically different from morphine”. Further, in the experiment with mice [4] (0.9% acetic acid i.p., compound i.p. 3 minutes prior, across doses), the “number of abdominal constrictions” value was “dose dependent pharmacological effect”. In the experiment with mice [4] (acetic acid model, 100 mg/kg AP4AmA i.p.), the “number of abdominal constrictions, compared with morphine” value was “not statistically different from morphine”. In addition, the “duration of time spent licking the inflamed hind paw” value in the experiment with mice [5] is on record as “dose dependent pharmacological effect”.
For the compound TNP-ATP, the antinociceptive effects entry in the experiment with rats [6] is recorded as “produce antinociceptive effects in rats”.

Source of the values: patent publication US6881725B2, “Method for treating pain” (Inspire Pharmaceuticals Inc., priority 2002, dated 2005).
